Experiments:
[1] = system: Del19/T790M/C797S EGFR; assay: EGFR degradation HTRF assay in H1975-clone #28 (DTC) cells; format: cell-based; settings: H1975 # 28 DTC (Del19/T790M/C797S), 16h treatment; for DC50: HTRF; for Dmax (%): maximum percentage of degradation
Procedure, shortened: (§1)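 DC50 from a four-parameter fit of HTRF signal. H1975 mutant-EGFR clones with endogenous EGFR knocked out; 16 h treatment, 10 uM top, 5-fold × 8.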

[2] = target: T1, L858R/T790M/C797S EGFR (Homo sapiens, UniProt P00533, C797S/L858R/T790M); assay: EGFR degradation HTRF assay in H1975-clone #25 (LTC) cells; format: cell-based; settings: 16h treatment; for DC50: H1975 # 25-LTC (L858R/T790M/C797S), HTRF; for Dmax: NCI-H1975, H1975 # 25-LTC (L858R/T790M/C797S), maximum percentage of degradation
T1 construct: expressed in transfected cells; host or cells: H1975 clone #25 (lentiviral over-expression, endogenous EGFR knocked out by sgRNA)
Procedure, shortened: as §1

T1 sequence (P00533 25-1210 T790M/C797S/L858R): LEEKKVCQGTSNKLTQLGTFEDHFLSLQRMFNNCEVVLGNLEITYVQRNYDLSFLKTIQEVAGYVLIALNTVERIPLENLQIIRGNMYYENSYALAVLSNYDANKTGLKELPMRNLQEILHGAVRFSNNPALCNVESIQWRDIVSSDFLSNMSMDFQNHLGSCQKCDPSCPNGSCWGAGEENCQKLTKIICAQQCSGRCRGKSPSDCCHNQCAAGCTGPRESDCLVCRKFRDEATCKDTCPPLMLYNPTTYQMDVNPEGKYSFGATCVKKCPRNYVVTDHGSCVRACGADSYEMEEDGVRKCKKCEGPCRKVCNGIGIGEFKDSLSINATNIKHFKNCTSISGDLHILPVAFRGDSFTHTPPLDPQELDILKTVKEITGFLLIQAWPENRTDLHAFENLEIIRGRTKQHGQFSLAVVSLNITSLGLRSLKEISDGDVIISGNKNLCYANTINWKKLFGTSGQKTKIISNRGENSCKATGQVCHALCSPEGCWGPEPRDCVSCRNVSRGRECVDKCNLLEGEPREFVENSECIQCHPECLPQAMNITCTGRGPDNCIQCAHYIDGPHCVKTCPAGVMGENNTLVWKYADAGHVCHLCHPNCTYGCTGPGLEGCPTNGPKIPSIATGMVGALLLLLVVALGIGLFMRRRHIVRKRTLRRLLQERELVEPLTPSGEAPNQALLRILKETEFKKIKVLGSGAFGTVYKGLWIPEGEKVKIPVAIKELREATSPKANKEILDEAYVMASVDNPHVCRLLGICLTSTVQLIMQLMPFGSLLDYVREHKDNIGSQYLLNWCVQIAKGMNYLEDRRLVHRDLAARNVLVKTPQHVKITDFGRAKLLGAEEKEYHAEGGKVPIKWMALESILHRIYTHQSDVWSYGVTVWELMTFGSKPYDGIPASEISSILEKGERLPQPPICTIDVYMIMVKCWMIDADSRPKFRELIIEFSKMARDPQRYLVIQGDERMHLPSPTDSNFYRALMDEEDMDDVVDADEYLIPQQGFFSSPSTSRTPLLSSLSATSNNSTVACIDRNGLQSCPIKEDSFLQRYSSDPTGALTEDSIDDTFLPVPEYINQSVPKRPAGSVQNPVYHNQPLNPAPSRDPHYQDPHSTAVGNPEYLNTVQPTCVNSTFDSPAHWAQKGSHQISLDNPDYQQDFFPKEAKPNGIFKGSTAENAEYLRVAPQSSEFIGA

**Q.** What does the source list for Cc1cc2cc(n1)-c1cnn(C)c1OCCC[C@@H](C)CN1/C(=N/C2=O)Nc2ccc(N3CCC(N4CCN(c5cc(F)c([C@H]6CCC(=O)NC6=O)c(F)c5)CC4)CC3)cc21 [Example 387, (R)-3-(2,6-difluoro-4-(4-(1-((R,E)-1^1,2^6,7-trimethyl-3-oxo-5^2,53-dihydro-1^1H,5^1H-11-oxa-4-aza-5(2,1)-benzo[d]imidazola-2(2,4)-pyridina-1(4,5)-pyrazolacycloundecaphane-5^6-yl)piperidin-4-yl)piperazin-1-yl)phenyl)piperidine-2,6-dione]?
**A.** DC50 [1]: 0.782 nM; Dmax (%) [1]: 76.00%; DC50 [2]: 1.46 nM; Dmax [2]: 87.2%

**Q.** What does the source list for Cc1cc2cc(n1)-c1cnn(C)c1OCCC[C@@H](C)CN1/C(=N/C2=O)Nc2ccc(C(=O)N(C)C3CCN(CCc4cccc5c4C(C)(C)C(=O)N5[C@H]4CCC(=O)NC4=O)CC3)cc21 [Example 379, (R,E)-N-(1-(2-(1-((S)-2,6-dioxopiperidin-3-yl)-3,3-dimethyl-2-oxoindolin-4-yl)ethyl)piperidin-4-yl)-N,1^1,2^6,7-tetramethyl-3-oxo-5^2,5^3-dihydro-1^1H,5^1H-11-oxa-4-aza-5(2,1)-benzo[d]imidazola-2(2,4)-pyridina-1(4,5)-pyrazolacycloundecaphane-5^6-carboxamide]?
**A.** DC50 [1]: 0.682 nM; Dmax (%) [1]: 67.89%; DC50 [2]: 0.503 nM; Dmax [2]: 80.9%

**Q.** What does the source list for Cc1cc2cc(n1)-c1cnn(C)c1OCC[C@H]1C[C@@H]1CN1/C(=N/C2=O)Nc2ccc(N3CCC(N4CCN(c5cc(F)c([C@H]6CCC(=O)NC6=O)c(F)c5)CC4=O)CC3)cc21 [Example 458, (R)-3-(4-(4-(1-((7'S,7^2R,E)-1^1,2^6-dimethyl-3-oxo-5^2,5^3-dihydro-1^1H,5^1H-10-oxa-4-aza-5(2,1)-benzo[d]imidazola-2(2,4)-pyridina-1(4,5)-pyrazola-7(1,2)-cyclopropanacyclodecaphane-5^6-yl)piperidin-4-yl)-3-oxopiperazin-1-yl)-2,6-difluorophenyl)piperidine-2,6-dione]?
**A.** DC50 [1]: 0.985 nM; Dmax (%) [1]: 92.47%; DC50 [2]: 0.809 nM; Dmax [2]: 92.7%

**Q.** With Cc1cc2cc(n1)-c1cnn(C)c1OCCC[C@@H](C)CN1/C(=N/C2=O)Nc2ccc(C(=O)N3CC4(C3)CN(C(=O)C3CN(c5cc(F)c([C@H]6CCC(=O)NC6=O)c(F)c5)C3)C4)cc21 [Example 229, (R)-3-(2,6-difluoro-4-(3-(6-((R,E)-1^1,2^6,7-trimethyl-3-oxo-5^2,5^3-dihydro-1^1H,5^1H-11-oxa-4-aza-5(2,1)-benzo[d]imidazola-2(2,4)-pyridina-1(4,5)-pyrazolacycloundecaphane-5^6-carbonyl)-2,6-diazaspiroheptane-2-carbonyl)azetidin-1-yl)phenyl)piperidine-2,6-dione] as the molecule, how does the DC50 [1] read?
**A.** 1.79 nM

**Q.** What about the “Dmax (%)” value [1] of the same molecule?
**A.** 78.12%

**Q.** What about the DC50 [2] of the same molecule?
**A.** 1.27 nM

**Q.** And the Dmax [2]?
**A.** 86.9%

**Q.** What does the source list for Cc1cc2cc(n1)-c1cnn(C)c1OCCC[C@@H](C)CN1/C(=N/C2=O)Nc2ccc(C(=O)N(C)CCN3CCN(c4cc(F)c([C@H]5CCC(=O)NC5=O)c(F)c4)CC3)cc21 [Example 280, (R,E)-N-(2-(4-(4-((R)-2,6-dioxopiperidin-3-yl)-3,5-difluorophenyl)piperazin-1-yl)ethyl)-N,1^1,2^6,7-tetramethyl-3-oxo-5^2,5^3-dihydro-1^1H,5^1H-11-oxa-4-aza-5(2,1)-benzo[d]imidazola-2(2,4)-pyridina-1(4,5)-pyrazolacycloundecaphane-5^6-carboxyamide]?
**A.** DC50 [1]: 0.657 nM; Dmax (%) [1]: 77.24%; DC50 [2]: 0.44 nM; Dmax [2]: 88.5%

**Q.** With Cc1cc2cc(n1)-c1cnn(C)c1OCCC[C@@H](C)CN1/C(=N/C2=O)Nc2ccc(N3CCN(C4CCN(c5cc(F)c([C@H]6CCC(=O)NC6=O)c(F)c5)CC4)[C@H](CO)C3)cc21 [Example 447, (R)-3-(2,6-difluoro-4-(4-((S)-2-(hydroxymethyl)-4-((R,E)-1^1,2^6,7-trimethyl-3-oxo-5^2,5^3-dihydro-1^1H,5^1H-11-oxa-4-aza-5(2,1)-benzo[d]imidazola-2(2,4)-pyridina-1(4,5)-pyrazolacycloundecaphane-5^6-yl)piperazin-1-yl)piperidin-1-yl)phenyl)piperidine-2,6-dione] as the molecule, how does the DC50 [1] read?
**A.** 0.645 nM

**Q.** What about the “Dmax (%)” value [1] of the same molecule?
**A.** 76.31%

**Q.** What about the DC50 [2] of the same molecule?
**A.** 0.652 nM

**Q.** And the Dmax [2]?
**A.** 84.2%

**Q.** With Cc1cc2cc(n1)-c1cnn(C)c1OCCC[C@@H](C)CN1/C(=N/C2=O)Nc2ccc(N3CCN(CCN(C)c4ccc5c(c4)CN([C@H]4CCC(=O)NC4=O)C5=O)CC3)cc21 [Example 405, (S)-3-(5-(methyl(2-(4-((R,E)-1^1,2^6,7-trimethyl-3-oxo-5^2,5^3-dihydro-1^1H,5^1H-11-oxa-4-aza-5(2,1)-benzo[d]imidazola-2(2,4)-pyridina-1(4,5)-pyrazolacycloundecaphane-5^6-yl)piperazin-1-yl)ethyl)amino)-1-oxoisoindolin-2-yl)piperidine-2,6-dione] as the molecule, how does the DC50 [1] read?
**A.** 1.26 nM

**Q.** What about the “Dmax (%)” value [1] of the same molecule?
**A.** 78.67%

**Q.** And the DC50 [2]?
**A.** 0.677 nM

**Q.** What about the Dmax [2] of the same molecule?
**A.** 80.5%

**Q.** What does the source list for Cc1cc2cc(n1)-c1cnn(C)c1OCCC[C@@H](C)CN1/C(=N/C2=O)Nc2ccc(C(=O)N3CCN(C(=O)[C@@H]4CCN(c5cc(F)c([C@H]6CCC(=O)NC6=O)c(F)c5)C4)CC3)cc21 [Example 96, (R)-3-(2,6-difluoro-4-((R)-3-(4-((R,E)-1^1,2^6,7-trimethyl-3-oxo-5^2,5^3-dihydro-1^1H,5^1H-11-oxa-4-aza-5(2,1)-benzo[d]imidazola-2(2,4)-pyridina-1(4,5)-pyrazolacycloundecaphane-5^6-carbonyl)piperazine-1-carbonyl)pyrrolidin-1-yl)phenyl)piperidine-2,6-dione]?
**A.** DC50 [1]: 0.4 nM; Dmax (%) [1]: 84.3%; DC50 [2]: 0.6 nM; Dmax [2]: 87.8%

**Q.** Which DC50 [1] does the source give for Cc1cc2cc(n1)-c1cnn(C)c1OCCC[C@@H](C)CN1/C(=N/C2=O)Nc2ccc(CN3CCN(C(=O)[C@@H]4CCN(c5cc(F)c([C@H]6CCC(=O)NC6=O)c(F)c5)C4)C[C@@H]3CO)cc21 [Example 195, (R)-3-(2,6-difluoro-4-((R)-3-((R)-3-(hydroxymethyl)-4-(((R,E)-1^1,2^5,7-trimethyl-3-oxo-5^2,5^3-dihydro-1^1H,5^1H-11-oxa-4-aza-5(2,1)-benzo[d]imidazola-2(2,4)-pyridina-(4,5)-pyrazolacycloundecaphane-5^6-yl)methyl)piperazine-1-carbonyl)pyrrolidin-1-yl)phenyl)piperidine-2,6-dione] here?
**A.** 0.712 nM

**Q.** And the “Dmax (%)” value [1]?
**A.** 76.37%

**Q.** What about the DC50 [2] of the same molecule?
**A.** 0.731 nM

**Q.** What about the Dmax [2] of the same molecule?
**A.** 85.5%

**Q.** How did the DC50 [1] turn out when Cc1cc2cc(n1)-c1cnn(C)c1OCCC[C@@H](C)CN1/C(=N/C2=O)Nc2ccc(C(=O)N(C)[C@@H](C)C3CCN(CCc4cc(F)c(C5CCC(=O)NC5=O)c(F)c4)CC3)cc21 (stereo partly drawn) [Example 272, (R,E)-N—((S)-1-(1-(4-((R)-2,6-dioxopiperidin-3-yl)-3,5-difluorophenethyl)piperidin-4-yl)ethyl)-N,1,2^6,7-tetramethyl-3-oxo-5^2,5^3-dihydro-1^1H,5^1H-11-oxa-4-aza-5(2,1)-benzo[d]imidazola-2(2,4)-pyridina-1(4,5)-pyrazolacycloundecaphane-5^6-carboxamide] was run?
**A.** 1.52 nM

**Q.** And the “Dmax (%)” value [1]?
**A.** 76.03%

**Q.** What about the DC50 [2] of the same molecule?
**A.** 1.36 nM

**Q.** What about the Dmax [2] of the same molecule?
**A.** 87.2%
